This is an account of results in patent US20260062426A1, “CYCLIN DEPENDENT KINASE DEGRADERS AND METHODS OF USE THEREOF” (Differentiated Therapeutics Inc, priority 2023, published 2026).

What all share (assay type): cell-based
One assay addresses T1, CDK2 (Homo sapiens, UniProt P24941).
T1 construct: host or cells: HEK293
Nature of the assay: CDK2 HIBIT PQ (protein quantification), degradation. The settings on record: for CDK2 HIBIT PQ Max (%): Max = Maximum; for DC50: PQ = Protein Quantification. The method, boiled down:
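Maximal degradation and DC50 were obtained from luminescence readings of HEK293 cells expressing HiBiT-tagged CDK2. The cells, grown in DMEM with 10% FBS, were seeded at 1.6×10^5 cells/well in 50 uL in 384-well plates and incubated overnight at 37° C and 5% CO2 before 6 hours of compound treatment. HiBiT reagent (Nano-Glo HiBiT lytic buffer, lytic substrate, LgBiT protein) was then added at 20 μL, and plates were shaken for 20 minutes at room temperature before reading on an EnVision, against a high control of 0.1% DMSO and a low control of medium only.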

A further assay concerns the target T2, CDK9 (Homo sapiens, UniProt P50750).
T2 construct: host or cells: HEK293
Nature of the assay: CDK9 HIBIT PQ (protein quantification), degradation. As to conditions: for Dmax: Max = Maximum; for DC50: PQ = Protein Quantification. The method, boiled down:
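Maximal degradation, Dmax and DC50 come from HiBiT assay readings of CDK9 protein in compound-treated HEK293 cells that express HiBiT-tagged CDK9. The cells were grown in DMEM with 10% FBS and seeded at 1.6×10^5 cells/well in 50 uL in 384-well plates before overnight incubation at 37° C and 5% CO2. Cells treated with 0.1% DMSO set the high control, and medium only set the low control.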

For a further assay, the target named is T3, CCNE1 (Homo sapiens, UniProt P24864+P24941).
T3 construct: host or cells: HEK293
Nature of the assay: CCNE1 HIBIT PQ (protein quantification), degradation. As to conditions: for CCNE1 HIBIT PQ Max (%): Max = Maximum; for DC50: PQ = Protein Quantification. The gist of the method: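 Compound was applied for 6 hours to HEK293 cells expressing HiBiT-tagged CCNE1, which had been seeded overnight in 384-well plates at 1.6×10⁵ cells/well. CCNE1 protein was then read by HiBiT assay against a high control of 0.1% DMSO-treated cells and a low control of medium only. These readings gave DC50 and maximal degradation.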

T2 sequence (P50750 whole entry): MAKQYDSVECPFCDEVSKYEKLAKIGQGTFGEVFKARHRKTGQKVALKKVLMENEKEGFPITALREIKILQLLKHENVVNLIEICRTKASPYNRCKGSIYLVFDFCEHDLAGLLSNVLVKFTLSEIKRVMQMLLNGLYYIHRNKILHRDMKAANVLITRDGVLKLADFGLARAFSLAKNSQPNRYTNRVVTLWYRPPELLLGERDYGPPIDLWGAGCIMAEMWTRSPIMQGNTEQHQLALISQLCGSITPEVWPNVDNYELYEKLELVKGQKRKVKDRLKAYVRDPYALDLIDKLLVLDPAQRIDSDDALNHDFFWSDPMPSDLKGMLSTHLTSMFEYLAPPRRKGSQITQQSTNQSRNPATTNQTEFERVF

In the case of `CC(C)Oc1c(-c2cn[nH]c2)ncn2nc(Nc3ccc(S(=O)(=O)c4cccc(CC5CC(c6ccc7c(c6)n(C)c(=O)n7[C@H]6CCC(=O)NC6=O)C5)c4)cc3F)nc12` (mixture of isomers) [Compound 31, (3S)-3-[5-(3-{[3-(3-fluoro-4-{[8-isopropoxy-7-(1H-pyrazol-4-yl)-[1,2,4]triazolo[1,5-c]pyrimidin-2-yl]amino}benzenesulfonyl)phenyl]methyl}cyclobutyl)-3-methyl-2-oxo-1,3-benzodiazol-1-yl]piperidine-2,6-dione], on CDK2, the “CDK2 HIBIT PQ Max (%)” value was found to be 81% and the DC50 is 1.7 nM. The same molecule had a Dmax at CDK9 of 9%. For the same molecule, the “CCNE1 HIBIT PQ Max (%)” value on CCNE1 came out at 26%.

Turning to `CC(C)Oc1c(-c2cn[nH]c2)ncn2nc(Nc3ccc(S(=O)(=O)c4cccc(CC5CC(c6ccc(C(=O)NC7CCC(=O)NC7=O)cc6)C5)c4)cc3F)nc12` (racemic) [Compound 32, rac-N-[(3R)-2,6-dioxopiperidin-3-yl]-4-(3-{[3-(3-fluoro-4-{[8-isopropoxy-7-(1H-pyrazol-4-yl)-[1,2,4]triazolo[1,5-c]pyrimidin-2-yl]amino}benzenesulfonyl)phenyl]methyl}cyclobutyl)benzamide], on CDK2, the “CDK2 HIBIT PQ Max (%)” value is recorded as 89% and it took 78.1 nM to reach half-maximal degradation (DC50). Besides, at CDK9, the Dmax was 62% and it took 396 nM to reach half-maximal degradation (DC50). Also, at CCNE1, the “CCNE1 HIBIT PQ Max (%)” value amounted to 62% and the DC50 was above 3000 nM.

For `CC(C)Oc1c(-c2cn[nH]c2)ncn2nc(Nc3ccc(S(=O)(=O)c4cccc(CN5CCN(c6ccc7c(N8CCC(=O)NC8=O)nn(C)c7c6)CC5C)c4)cc3F)nc12` (racemic) [Compound 39], on CDK2, the “CDK2 HIBIT PQ Max (%)” value was determined as 96% and half-maximal degradation (DC50) was put at 3.3 nM. On CDK9, the Dmax came to 60% and the DC50 is 58.5 nM. At CCNE1, the “CCNE1 HIBIT PQ Max (%)” value worked out at 67% and the DC50 was 14.9 nM.

`CC(C)Oc1c(-c2cn[nH]c2)ncn2nc(Nc3ccc(S(=O)(=O)c4cccc(CN5CCN(c6ccc7c(N8CCC(=O)NC8=O)nn(C)c7c6)C(C)C5)c4)cc3F)nc12` (racemic) [Compound 41]: on CDK2, the “CDK2 HIBIT PQ Max (%)” value was 94% and half-maximal degradation (DC50) was put at 3.9 nM. At CDK9, this molecule registered a Dmax of 57% and a DC50 of 28 nM. Moreover, at CCNE1, the “CCNE1 HIBIT PQ Max (%)” value turned out to be 41%.

Consider `CC(C)Oc1c(-c2cn[nH]c2)ncn2nc(Nc3ccc(S(=O)(=O)c4cccc(CN5CCN(c6ccc7c(N8CCC(=O)NC8=O)nn(C)c7c6)CC5C(C)C)c4)cc3F)nc12` (racemic) [Compound 42, rac-(R)-1-(6-(4-(3-((3-fluoro-4-((8-isopropoxy-7-(1H-pyrazol-4-yl)-[1,2,4]triazolo[1,5-c]pyrimidin-2-yl)amino)phenyl)sulfonyl)benzyl)-3-isopropylpiperazin-1-yl)-1-methyl-1H-indazol-3-yl)dihydropyrimidine-2,4(1H,3H)-dione], for which, at CDK2, the “CDK2 HIBIT PQ Max (%)” value is 95% and the DC50 is 14.9 nM. Moreover, at CDK9, the Dmax worked out at 61% and half-maximal degradation (DC50) was put at 306 nM. On CCNE1, the “CCNE1 HIBIT PQ Max (%)” value amounted to 67% and the DC50 came out at 78.9 nM.

Consider `CC(C)Oc1c(-c2cn[nH]c2)ncn2nc(Nc3ccc(S(=O)(=O)c4cccc(CN5CCN(c6ccc7c(N8CCC(=O)NC8=O)nn(C)c7c6)C(C(C)C)C5)c4)cc3F)nc12` (racemic) [Compound 43, rac-1-{6-[(2R)-4-{[3-(3-fluoro-4-{[8-isopropoxy-7-(1H-pyrazol-4-yl)-[1,2, 4]triazolo[1,5-c]pyrimidin-2-yl]amino}benzenesulfonyl)phenyl]methyl}-2-isopropylpiperazin-1-yl]-1-methylindazol-3-yl}-1,3-diazinane-2,4-dione], for which, at CDK2, the “CDK2 HIBIT PQ Max (%)” value turned out to be 94% and half-maximal degradation (DC50) was put at 14.5 nM. On CDK9, this molecule registered a Dmax of 75% and a DC50 of 307 nM. For the same molecule, at CCNE1, the “CCNE1 HIBIT PQ Max (%)” value was 76% and the DC50 worked out at 96.5 nM.

Take `CC(C)Oc1c(-c2cn[nH]c2)ncn2nc(Nc3ccc(S(=O)(=O)N(C)CCCN4CCC(c5ccc6c(c5)n(C)c(=O)n6C5CCC(=O)NC5=O)CC4)c4ccoc34)nc12` (racemic) [Compound 53]: on CDK2, the “CDK2 HIBIT PQ Max (%)” value was 87% and half-maximal degradation (DC50) was put at 0.2 nM. At CDK9, this molecule came in with a Dmax of 67% and a DC50 of 2.64 nM. In addition, on CCNE1, the “CCNE1 HIBIT PQ Max (%)” value was 61% and it took 0.74 nM to reach half-maximal degradation (DC50).

Regarding `CC(C)Oc1c(-c2cn[nH]c2)ncn2nc(Nc3ccc(S(=O)(=O)N(C)CCCN4CCC(c5ccc6c(c5)n(C)c(=O)n6C5CCC(=O)NC5=O)CC4)cc3)nc12` (racemic) [Compound 54], on CDK2, the “CDK2 HIBIT PQ Max (%)” value is on record as 89% and the DC50 stood at 0.1 nM. On CDK9, this molecule gave a Dmax of 74% and a DC50 of 1.57 nM. Also, on CCNE1, the “CCNE1 HIBIT PQ Max (%)” value came out at 82% and the DC50 came to 0.59 nM.

Take `Cc1c(S(=O)(=O)N(C)CCCN2CCC(c3ccc4c(c3)n(C)c(=O)n4C3CCC(=O)NC3=O)CC2)ccc(Nc2nc3c(OC(C)C)c(-c4cn[nH]c4)ncn3n2)c1F` (racemic) [Compound 55, rac-(R)-N-(3-(4-(1-(2,6-dioxopiperidin-3-yl)-3-methyl-2-oxo-2,3-dihydro-1H-benzo[d]imidazol-5-yl)piperidin-1-yl)propyl)-3-fluoro-4-((8-isopropoxy-7-(1H-pyrazol-4-yl)-[1,2,4]triazolo[1,5-c]pyrimidin-2-yl)amino)-N,2-dimethylbenzenesulfonamide]: on CDK2, the “CDK2 HIBIT PQ Max (%)” value is listed as 91% and the DC50 was 0.1 nM. On CDK9, this molecule showed a Dmax of 83% and a DC50 of 1.13 nM. At CCNE1, the “CCNE1 HIBIT PQ Max (%)” value is reported as 76% and the DC50 came out at 0.51 nM.

As to `CC(C)Oc1c(-c2cn[nH]c2)ncn2nc(Nc3ccc(S(=O)(=O)N(C)CCCN4CCC(c5ccc6c(c5)n(C)c(=O)n6C5CCC(=O)NC5=O)CC4)c(F)c3F)nc12` (racemic) [Compound 56], the “CDK2 HIBIT PQ Max (%)” value on CDK2 amounted to 93%. Also, on CDK9, the Dmax was 90% and it took 0.48 nM to reach half-maximal degradation (DC50). For the same molecule, at CCNE1, the “CCNE1 HIBIT PQ Max (%)” value is given as 82% and the DC50 amounted to 0.23 nM.

With `Cc1cc(S(=O)(=O)N(C)CCCN2CCC(c3ccc4c(c3)n(C)c(=O)n4C3CCC(=O)NC3=O)CC2)cc(F)c1Nc1nc2c(OC(C)C)c(-c3cn[nH]c3)ncn2n1` (racemic) [Compound 57], on CDK2, the “CDK2 HIBIT PQ Max (%)” value turned out to be 90% and the DC50 was 0.3 nM. Further, on CDK9, the Dmax came out at 82% and half-maximal degradation (DC50) was put at 2.25 nM. Also, on CCNE1, the “CCNE1 HIBIT PQ Max (%)” value is 76% and it took 0.62 nM to reach half-maximal degradation (DC50).

On to `CC(C)Oc1c(-c2cn[nH]c2)ncn2nc(Nc3c(F)cc(S(=O)(=O)N(C)CCCN4CCC(c5ccc6c(c5)n(C)c(=O)n6C5CCC(=O)NC5=O)CC4)cc3F)nc12` (racemic) [Compound 58], for which, at CDK2, the “CDK2 HIBIT PQ Max (%)” value was found to be 94% and it took 0.1 nM to reach half-maximal degradation (DC50). In addition, on CDK9, the Dmax stood at 86% and the DC50 was determined as 1.51 nM. Moreover, at CCNE1, the “CCNE1 HIBIT PQ Max (%)” value was 86% and the DC50 turned out to be 0.39 nM.

Regarding `Cc1cc(Nc2nc3c(OC(C)C)c(-c4cn[nH]c4)ncn3n2)c(F)cc1S(=O)(=O)N(C)CCCN1CCC(c2ccc3c(c2)n(C)c(=O)n3C2CCC(=O)NC2=O)CC1` (racemic) [Compound 59], at CDK2, the “CDK2 HIBIT PQ Max (%)” value is given as 86% and the DC50 was determined as 0.1 nM. Also, at CDK9, the Dmax is 68% and it took 1.34 nM to reach half-maximal degradation (DC50). Besides, at CCNE1, the “CCNE1 HIBIT PQ Max (%)” value is listed as 66% and half-maximal degradation (DC50) was put at 0.4 nM.

`CC(C)Oc1c(-c2cn[nH]c2)ncn2nc(Nc3cc(F)c(S(=O)(=O)N(C)CCCN4CCC(c5ccc6c(c5)n(C)c(=O)n6C5CCC(=O)NC5=O)CC4)cc3F)nc12` (racemic) [Compound 60]: the “CDK2 HIBIT PQ Max (%)” value at CDK2 came out at 93%. In addition, at CDK9, the Dmax is 75% and it took 1.52 nM to reach half-maximal degradation (DC50). At CCNE1, the “CCNE1 HIBIT PQ Max (%)” value amounted to 74% and it took 0.45 nM to reach half-maximal degradation (DC50).

As for `CC(C)Oc1c(-c2cn[nH]c2)ncn2nc(Nc3ccc(S(=O)(=O)N(C)CCCN4CCC(c5ccc6c(c5)n(C)c(=O)n6C5CCC(=O)NC5=O)CC4)c4cnccc34)nc12` (racemic) [Compound 61], on CDK2, the “CDK2 HIBIT PQ Max (%)” value is 86% and the DC50 was 0.3 nM. On CDK9, this molecule showed a Dmax of 78% and a DC50 of 3.2 nM. In addition, at CCNE1, the “CCNE1 HIBIT PQ Max (%)” value came out at 72% and the DC50 was found to be 1.55 nM.

For the molecule `CC(C)Oc1c(-c2cn[nH]c2)ncn2nc(Nc3ccc(S(=O)(=O)N(C)CCCN4CCN(c5ccc6c(c5)n(C)c(=O)n6C5CCC(=O)NC5=O)CC4(C)C)cc3F)nc12` (racemic) [Compound 67], on CDK2, the “CDK2 HIBIT PQ Max (%)” value was determined as 92% and the DC50 was below 0.152 nM. On CDK9, this molecule displayed a Dmax of 91% and a DC50 of 1.52 nM. Moreover, on CCNE1, the “CCNE1 HIBIT PQ Max (%)” value is 73% and the DC50 was found to be 1.08 nM.

In the case of `CC(C)Oc1c(-c2cn[nH]c2)ncn2nc(Nc3ccc(S(=O)(=O)N4CC5(CCCN(CC6CCN(c7cccc8c7n(C)c(=O)n8C7CCC(=O)NC7=O)CC6)C5)C4)cc3F)nc12` (racemic) [Compound 76], at CDK2, the “CDK2 HIBIT PQ Max (%)” value came out at 87% and the DC50 came to 5.8 nM. At CDK9, this molecule displayed a Dmax of 46%. Further, on CCNE1, the “CCNE1 HIBIT PQ Max (%)” value was found to be 40%.

Usually DC50 stands for the concentration giving 50% degradation. Lower therefore signals degradation at low concentration. In general, Dmax refers to the greatest extent of degradation seen. The low end stands for a partial loss of target, the high end for a fuller loss of target.
